The record followed here is PubChem BioAssay (NCI).

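96-well plates; 48 h exposure; 5 concentrations. Endpoints by linear interpolation between flanking doses. Not reached: highest tested concentration assigned. GI50 is the concentration that inhibits growth by half. At the TGI there is no net growth.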 Where only a bound is given, the exact number is not on record here.

Among the test systems are BT-549 breast; NCI/ADR-RES ovarian; PC-3 prostate; T-47D breast.
Experiment in all cases: NCI-60 cell line screen, 48 h

With `CN1CCN(Cc2ccc(NC(=O)c3cncc(C#Cc4cnc(N)c5ccc(F)cc45)c3)cc2C(F)(F)F)CC1`, the GI50 was 4.38 µM in the assay with BT-549 breast, 3.22 µM in the assay on NCI/ADR-RES ovarian, 1.39 µM with PC-3 prostate and 4.53 µM with T-47D breast. The TGI in the assay on BT-549 breast worked out at 8.86 µM; in the assay with NCI/ADR-RES ovarian, 10.4 µM; in the assay with PC-3 prostate, 6.68 µM; in the assay on T-47D breast it was 11.4 µM.

Take `C=CCn1c(C)nc2cc(Nc3nc(Nc4ccc5nc(C)n(CC=C)c5c4)c4ccccc4n3)ccc21`: in the assay with NCI/ADR-RES ovarian, the GI50 is 2.03 µM and the TGI is 5.27 µM. For the same molecule, in the assay on T-47D breast, the GI50 is 0.28 µM and the TGI was determined as 0.909 µM.

As for `COc1ccc2c(c1)sc1nc(-c3ccccc3)c(-c3ccsc3)n12`, the GI50 in the assay on BT-549 breast was 6.56 µM; with NCI/ADR-RES ovarian, 2.53 µM; in the assay on PC-3 prostate it was 4.02 µM; with T-47D breast, 6.27 µM. The TGI with BT-549 breast, in the assay on NCI/ADR-RES ovarian, in the assay with PC-3 prostate and with T-47D breast was more than 100 µM in each case.

Regarding `CCN(CC)CCNc1c(OC)cc(C)c2sc3ccccc3c(=O)c12`, the TGI in the assay on BT-549 breast is 24.2 µM; with NCI/ADR-RES ovarian, 19.2 µM; with PC-3 prostate, 20.8 µM; in the assay on T-47D breast, 39.9 µM.

With `Nc1c(C(=O)c2ccccc2)sc2nc(-c3cccs3)ccc12`, the GI50 was 0.332 µM with BT-549 breast, 0.0537 µM in the assay on NCI/ADR-RES ovarian, 0.176 µM in the assay on PC-3 prostate and 0.335 µM in the assay on T-47D breast. Besides, the TGI was 11.6 µM with BT-549 breast, 1.81 µM in the assay with NCI/ADR-RES ovarian, 10.1 µM with PC-3 prostate and 12.2 µM with T-47D breast.

Take `CC(=O)Oc1cc(C)ccc1[C@]1(C)CC[C@H](C)/C1=C\Br`: the GI50 in the assay with BT-549 breast is 4.1 µM; in the assay on NCI/ADR-RES ovarian, 2.68 µM; with PC-3 prostate it was 3.33 µM; with T-47D breast, 5.38 µM. For the same molecule, the TGI in the assay on BT-549 breast is 17.6 µM; in the assay on NCI/ADR-RES ovarian it was 7.94 µM; in the assay on PC-3 prostate it was 12.3 µM; in the assay with T-47D breast, 23.4 µM.

Turning to `O=c1oc2ccccc2c(O)c1/C=N\c1nc(-c2ccccc2)cs1`, the figures for the TGI in the assay with NCI/ADR-RES ovarian, in the assay on PC-3 prostate and in the assay with T-47D breast were 63.5 µM, 31.2 µM and 47.1 µM, respectively.

Take `COc1ccc(/C=C/c2cc(OC)c(OC)c(OC)c2)cc1NC(=O)/C=C/c1ccc(F)cc1`: the GI50 with BT-549 breast was 4.49 µM; in the assay with NCI/ADR-RES ovarian, 1.19 µM; in the assay on PC-3 prostate, 1.98 µM; with T-47D breast, 5.51 µM. Further, the TGI with BT-549 breast was more than 100 µM; in the assay with NCI/ADR-RES ovarian, 6.38 µM; in the assay on PC-3 prostate, more than 100 µM; in the assay on T-47D breast, more than 100 µM.

Take `COc1cc(OC2OC(C)C(O)C(O)C2O)cc2oc(-c3ccc(O)cc3)c(CC=C(C)C)c(=O)c12` (stereo not drawn): the GI50 in the assay on BT-549 breast was 31.2 µM; with NCI/ADR-RES ovarian, 24.3 µM; with PC-3 prostate, 8.32 µM; in the assay on T-47D breast, 8.74 µM. For the same molecule, the TGI was more than 100 µM with BT-549 breast, 93.3 µM with NCI/ADR-RES ovarian, 28.4 µM in the assay with PC-3 prostate and 30.8 µM with T-47D breast.

On to `Cc1ccc(C(=O)c2oc3ccc4c(C)cc(=O)oc4c3c2C)cc1`, for which the GI50 with BT-549 breast was 45.6 µM; with NCI/ADR-RES ovarian it was 10.2 µM; in the assay with PC-3 prostate, 5.64 µM; in the assay on T-47D breast, 50.1 µM. The TGI in the assay on BT-549 breast, in the assay on NCI/ADR-RES ovarian, in the assay with PC-3 prostate and in the assay with T-47D breast was more than 100 µM throughout.

With `Oc1ccc(N=Nc2ccc(Cl)cc2)cc1`, the TGI in the assay on BT-549 breast amounted to 32.6 µM; in the assay with NCI/ADR-RES ovarian, 51.3 µM; in the assay on PC-3 prostate it was 29.3 µM; with T-47D breast, 67.4 µM.

Turning to `CN(C)c1ccc(/C=C2\Oc3cc(O)ccc3C2=O)cc1`, the TGI with BT-549 breast, with NCI/ADR-RES ovarian, in the assay with PC-3 prostate and with T-47D breast was more than 100 µM in each case.

Consider `COc1cc2c(cc1C)NC(=O)/C2=C\c1cc(OC)c(OC)c(OC)c1`, for which the GI50 in the assay on BT-549 breast is 29.6 µM; in the assay on NCI/ADR-RES ovarian, more than 100 µM; with PC-3 prostate, more than 100 µM; with T-47D breast, more than 100 µM. The TGI in the assay with BT-549 breast, in the assay on NCI/ADR-RES ovarian, in the assay with PC-3 prostate and with T-47D breast was more than 100 µM throughout.

As for `O=C(Oc1ccc(O)c2c(=O)n3c(cc12)[nH]c1ccccc13)c1ccccc1`, the GI50 in the assay with BT-549 breast was 6.35 µM; with NCI/ADR-RES ovarian it was 18.7 µM; in the assay with PC-3 prostate, 18.2 µM; in the assay on T-47D breast it was 9.32 µM. The TGI in the assay on BT-549 breast was 32.2 µM; in the assay on NCI/ADR-RES ovarian, 55 µM; with PC-3 prostate, 56 µM; with T-47D breast, 47.2 µM.

On to `O=[N+]([O-])c1ccc2[nH]cc(-c3c4ccsc4cc4[nH]c5ccc([N+](=O)[O-])cc5c34)c2c1`, for which the GI50 is 1.49 µM in the assay on BT-549 breast, 0.744 µM in the assay on NCI/ADR-RES ovarian, 0.931 µM in the assay on PC-3 prostate and 0.864 µM in the assay on T-47D breast. Moreover, the TGI in the assay with BT-549 breast is 6.36 µM; in the assay with NCI/ADR-RES ovarian, 8.22 µM; in the assay with PC-3 prostate, 6.36 µM; in the assay with T-47D breast, 4.46 µM.

On to `O=C(Nc1ccc(Cl)cc1)Nc1ccc(Cl)c(Cl)c1`, for which the GI50 in the assay with NCI/ADR-RES ovarian was 3.6 µM; with PC-3 prostate, 2.97 µM; with T-47D breast, 3.05 µM. The TGI with NCI/ADR-RES ovarian is more than 100 µM; in the assay on PC-3 prostate, more than 100 µM; with T-47D breast it was 30.6 µM.

As for `O=c1ccn(C2OC(CO)C(O)C2O)c(=O)[nH]1` (stereo not drawn), the TGI with BT-549 breast, in the assay on NCI/ADR-RES ovarian, with PC-3 prostate and in the assay with T-47D breast was more than 1000 µM throughout. Further, the GI50 in the assay on NCI/ADR-RES ovarian, in the assay with PC-3 prostate and with T-47D breast was more than 1000 µM throughout.

Regarding `CN(C)CCNc1nc2ccccc2c2c1c1c(n2Cc2ccccc2)-c2ccccc2C1=O`, the results for the GI50 in the assay with BT-549 breast, in the assay on NCI/ADR-RES ovarian and in the assay with T-47D breast were 16.7 µM, 5.77 µM and 19.4 µM, respectively. Besides, the results for the TGI in the assay on BT-549 breast, in the assay on NCI/ADR-RES ovarian and in the assay with T-47D breast were 32.9 µM, 23.1 µM and 50.6 µM, respectively.
